The test system of one data set is Candida parapsilosis. As to the kind of experiment: Antifungal activity against Candida parapsilosis ATCC 22019 after 16 hrs by microtiter broth dilution method. It is filed as functional. Background: Broth dilution looks for growth in wells or tubes with falling amounts of substance.
The test system of another data set is Sporothrix schenckii. As to the kind of experiment: Antifungal activity against Sporothrix schenckii after 16 hrs by microtiter broth dilution method. It is filed as functional.
Another data set deals with Candida albicans. As to the kind of experiment: Antifungal activity against Candida albicans after 16 hrs by microtiter broth dilution method. It is filed as functional.
Another data set has as its system Pseudomonas aeruginosa. Briefly: Antibacterial activity against Pseudomonas aeruginosa ATCC BAA-427 after 16 hrs by microtiter broth dilution method. It is filed as functional.
Data set [1] deals with Staphylococcus aureus. As to the kind of experiment: Antibacterial activity against methicillin/gentamicin-resistant Staphylococcus aureus ATCC 33592 after 16 hrs by microtiter broth dilution method. It is filed as functional.
The subject of the next data set is Klebsiella pneumoniae. As to the kind of experiment: Antibacterial activity against Klebsiella pneumoniae ATCC 27736 after 16 hrs by microtiter broth dilution method. It is filed as functional.
Data set [2] is described as follows: Hemolytic activity in human RBC at 100 ug/ml after 1 hr. The settings on record: erythrocyte.
Another data set deals with Escherichia coli. Briefly: Antibacterial activity against Escherichia coli ATCC 9637 after 16 hrs by microtiter broth dilution method. It is filed as functional. The settings on record: W.
The test system of data set [3] is Trichophyton mentagrophytes. As to the kind of experiment: Antifungal activity against Trichophyton mentagrophytes after 16 hrs by microtiter broth dilution method. It is filed as functional.
The test system of data set [4] is Staphylococcus aureus. As to the kind of experiment: Antibacterial activity against Staphylococcus aureus ATCC 25923 after 16 hrs by microtiter broth dilution method. It is filed as functional.
Data set [5] has as its system Staphylococcus aureus. Briefly: Antibacterial activity against […] Staphylococcus aureus ATCC 29213 after 16 hrs by microtiter broth dilution method. It is filed as functional.
In data set [6] the test system is Staphylococcus aureus. Briefly: Antibacterial activity against methicillin-resistant Staphylococcus aureus ATCC 700699 after 16 hrs by microtiter broth dilution method. It is filed as functional.
Another data set deals with Aspergillus fumigatus. Briefly: Antifungal activity against Aspergillus fumigatus after 16 hrs by microtiter broth dilution method. It is filed as functional.
A further data set relates to Cryptococcus neoformans. Briefly: Antifungal activity against Cryptococcus neoformans after 16 hrs by microtiter broth dilution method. It is filed as functional.
[7] abbreviates: Lodderomyces parapsilosis, ATCC 22019, 16 h.

Values after ≈ are worked out from the molar mass of the structure shown.

By MIC is commonly meant the lowest concentration found to suppress growth. The low end stands for inhibition by little substance, the high end for a need for much substance. Regarding `CCOC(=O)c1csc(/N=C/c2cc(/C=C/C(=O)c3cccs3)cc(C(C)C)c2O)n1`, the MIC with Candida parapsilosis (setting [7]) was over 110 µM; against Sporothrix schenckii, over 110 µM; against Candida albicans, over 110 µM; in the data set on Pseudomonas aeruginosa (ATCC BAA-427, 16 h) it was over 110 µM; in the data set on Staphylococcus aureus [1] (ATCC 33592, 16 h), 13.7 µM (≈ 6.23 µg/mL); with Klebsiella pneumoniae (ATCC 27736, 16 h), over 110 µM. Moreover, the MIC in the data set with Escherichia coli was over 110 µM; in data set [3], over 110 µM; in the data set with Staphylococcus aureus [4] (ATCC 25923, 16 h), 27.5 µM (≈ 12.5 µg/mL); in the data set on Staphylococcus aureus [5] (ATCC 29213, 16 h) it was 27.5 µM (≈ 12.5 µg/mL); with Staphylococcus aureus [6] (ATCC 700699, 16 h), 27.5 µM (≈ 12.5 µg/mL); in the data set with Aspergillus fumigatus it was over 110 µM. The minimal inhibitory concentration (MIC) with Cryptococcus neoformans was over 110 µM. The Activity entry in data set [2] was “Non-toxic”.

Turning to `COc1ccc(C(=O)/C=C/c2cc(/C=N/c3nc(-c4ccc(OC)cc4)cs3)c(O)c(C(C)(C)C)c2)cc1`, the minimum inhibitory concentration (MIC) was over 94.9 µM against Candida parapsilosis (setting [7]); over 94.9 µM against Sporothrix schenckii; over 94.9 µM against Candida albicans; over 94.9 µM against Pseudomonas aeruginosa (ATCC BAA-427, 16 h); 3 µM (≈ 1.58 µg/mL) in the data set on Staphylococcus aureus [1] (ATCC 33592, 16 h); over 94.9 µM in the data set on Klebsiella pneumoniae (ATCC 27736, 16 h). The MIC is over 94.9 µM against Escherichia coli; over 94.9 µM in data set [3]; 11.9 µM (≈ 6.27 µg/mL) against Staphylococcus aureus [4] (ATCC 25923, 16 h); 11.9 µM (≈ 6.27 µg/mL) with Staphylococcus aureus [5] (ATCC 29213, 16 h); 11.9 µM (≈ 6.27 µg/mL) against Staphylococcus aureus [6] (ATCC 700699, 16 h); over 94.9 µM in the data set with Aspergillus fumigatus. Also, the minimal inhibitory concentration (MIC) in the data set on Cryptococcus neoformans is over 94.9 µM. Also, the Activity result in data set [2] was “Non-toxic”.

In the case of `CCOC(=O)c1csc(/N=C/c2cc(/C=C/C(=O)c3ccc(OC)cc3)cc(C(C)C)c2O)n1`, the minimum inhibitory concentration (MIC) was over 104 µM against Candida parapsilosis (setting [7]); over 104 µM against Sporothrix schenckii; over 104 µM against Candida albicans; over 104 µM with Pseudomonas aeruginosa (ATCC BAA-427, 16 h); 26.1 µM (≈ 12.5 µg/mL) in the data set with Staphylococcus aureus [1] (ATCC 33592, 16 h); over 104 µM in the data set on Klebsiella pneumoniae (ATCC 27736, 16 h). Also, the minimum inhibitory concentration (MIC) was over 104 µM against Escherichia coli; over 104 µM in data set [3]; 26.1 µM (≈ 12.5 µg/mL) in the data set with Staphylococcus aureus [4] (ATCC 25923, 16 h); 26.1 µM (≈ 12.5 µg/mL) in the data set with Staphylococcus aureus [5] (ATCC 29213, 16 h); 26.1 µM (≈ 12.5 µg/mL) in the data set with Staphylococcus aureus [6] (ATCC 700699, 16 h); over 104 µM in the data set with Aspergillus fumigatus. For the same compound, in the data set on Cryptococcus neoformans, the MIC is over 104 µM. Besides, the Activity result in [2] is on record as “Non-toxic”.

`COc1ccc(-c2csc(/N=C/c3cc(/C=C/C(=O)c4cccs4)cc(C(C)(C)C)c3O)n2)cc1OC`: the minimal inhibitory concentration (MIC) against Candida parapsilosis (setting [7]) is over 93.9 µM; in the data set on Sporothrix schenckii it was over 93.9 µM; against Candida albicans it was over 93.9 µM; in the data set on Pseudomonas aeruginosa (ATCC BAA-427, 16 h) it was over 93.9 µM; against Staphylococcus aureus [1] (ATCC 33592, 16 h) it was 11.7 µM (≈ 6.23 µg/mL); with Klebsiella pneumoniae (ATCC 27736, 16 h), over 93.9 µM. In addition, the minimal inhibitory concentration (MIC) against Escherichia coli was over 93.9 µM; in [3], over 93.9 µM; against Staphylococcus aureus [4] (ATCC 25923, 16 h), 23.5 µM (≈ 12.5 µg/mL); with Staphylococcus aureus [5] (ATCC 29213, 16 h), 11.7 µM (≈ 6.23 µg/mL); with Staphylococcus aureus [6] (ATCC 700699, 16 h) it was 11.7 µM (≈ 6.23 µg/mL); against Aspergillus fumigatus, over 93.9 µM. In the data set with Cryptococcus neoformans, this compound had an MIC of over 93.9 µM. Also, the Activity result in data set [2] is on record as “Non-toxic”.

In the case of `OC(Cn1cncn1)(Cn1cncn1)c1ccc(F)cc1F` [FLUCONAZOLE], the MIC in the data set with Candida parapsilosis (setting [7]) is 1.4 µM (≈ 0.429 µg/mL); against Sporothrix schenckii, 1.4 µM (≈ 0.429 µg/mL); against Candida albicans, 0.7 µM (≈ 0.214 µg/mL); with Pseudomonas aeruginosa (ATCC BAA-427, 16 h), over 34.5 µM; with Staphylococcus aureus [1] (ATCC 33592, 16 h) it was over 34.5 µM; in the data set on Klebsiella pneumoniae (ATCC 27736, 16 h), over 34.5 µM. Moreover, the minimum inhibitory concentration (MIC) against Escherichia coli is over 34.5 µM; in data set [3] it was 22.1 µM (≈ 6.77 µg/mL); in the data set on Staphylococcus aureus [4] (ATCC 25923, 16 h), over 34.5 µM; against Staphylococcus aureus [5] (ATCC 29213, 16 h) it was over 34.5 µM; with Staphylococcus aureus [6] (ATCC 700699, 16 h), over 34.5 µM; against Aspergillus fumigatus, 22.1 µM (≈ 6.77 µg/mL). Besides, the MIC with Cryptococcus neoformans was 1.4 µM (≈ 0.429 µg/mL).

Regarding `CCn1cc(C(=O)O)c(=O)c2cc(F)c(N3CCNCC3)cc21` [NORFLOXACIN], the MIC is 33.6 µM (≈ 10.7 µg/mL) with Candida parapsilosis (setting [7]); 33.6 µM (≈ 10.7 µg/mL) in the data set on Sporothrix schenckii; over 33.6 µM in the data set on Candida albicans; 1 µM (≈ 0.319 µg/mL) against Pseudomonas aeruginosa (ATCC BAA-427, 16 h); 0.5 µM (≈ 0.16 µg/mL) against Staphylococcus aureus [1] (ATCC 33592, 16 h); 0.1 µM (≈ 0.0319 µg/mL) in the data set on Klebsiella pneumoniae (ATCC 27736, 16 h). Further, the minimal inhibitory concentration (MIC) is 33.6 µM (≈ 10.7 µg/mL) in data set [3]; 0.5 µM (≈ 0.16 µg/mL) in the data set with Staphylococcus aureus [4] (ATCC 25923, 16 h); 1 µM (≈ 0.319 µg/mL) against Staphylococcus aureus [5] (ATCC 29213, 16 h); 33.6 µM (≈ 10.7 µg/mL) with Staphylococcus aureus [6] (ATCC 700699, 16 h); 33.6 µM (≈ 10.7 µg/mL) in the data set with Aspergillus fumigatus; 33.6 µM (≈ 10.7 µg/mL) in the data set on Cryptococcus neoformans.

Consider GENTAMICIN, for which the minimum inhibitory concentration (MIC) in the data set on Candida parapsilosis was 105 µM; against Sporothrix schenckii, 105 µM; against Candida albicans it was over 105 µM; in the data set with Pseudomonas aeruginosa, 1.6 µM; in the data set on Staphylococcus aureus [1], 105 µM; in the data set on Klebsiella pneumoniae it was 3.3 µM. Further, the minimal inhibitory concentration (MIC) in the data set with Escherichia coli turned out to be 6.5 µM; in data set [3], 105 µM; with Staphylococcus aureus [4], 1.6 µM; in the data set with Staphylococcus aureus [5], 3.3 µM; against Staphylococcus aureus [6] it was 105 µM; in the data set with Aspergillus fumigatus it was 105 µM. Moreover, the lowest concentration to inhibit growth in the data set on Cryptococcus neoformans (MIC) was 105 µM.

Source of the values: ChEMBL document CHEMBL3608288, “Novel Chalcone-Thiazole Hybrids as Potent Inhibitors of Drug Resistant Staphylococcus aureus” (ACS Med Chem Lett, 2015).
